One data set has as its system Rat white adipocytes. Nature of the data set: Adipocyte differentiation inhibition test (Test Example 3). It counts as cell-based. As to conditions: with Compound A 3.3 nM, 5 days, Oil Red O ABS550, N.D. denotes not calculable; for IC50: Adipocyte, 120 h. Here is the method:
Rat white adipocytes included in a white adipocyte culture kit purchased from Primary Cell Co., Ltd. were subjected to this test. A medium included in the white adipocyte culture kit purchased from Primary Cell Co., Ltd. was used as a growth medium or a differentiation-inducing medium.
The whole of the transportation medium was extracted immediately after the arrival of the purchased cells. The growth medium was added in an amount of 5 ml(/25 cm^2-flask), and the cells were cultured for one day. Thereafter, a cell suspension (83,000 cells/mL) was prepared using the growth medium. The cell suspension was dispensed to a 96-well type-I collagen-coated microplate (Becton, Dickinson and Company) at 5,000 to 6,000 cells/well (60 μL/well). A well to which only the growth medium not containing cells was dispensed (blank well) was provided as a blank group in each plate.
3) For the negative control group, DMSO diluted 20-fold with the differentiation-inducing medium was added at 3 μL/well (final DMSO concentration: 0.1% (v/v)) to the wells into which the cells were seeded.
After culturing for five days, the whole of the differentiation-inducing medium was removed from each well, and 60 μL of a 10% (v/v) formaldehyde solution (fixative solution) was added to each well. The cells were incubated at room temperature for 20 minutes. The whole of the fixative solution was removed and 60 μL of a 0.2% (v/v) Triton X-100 solution (Sigma) was dispensed to each well. The cells were incubated at room temperature for five minutes. The whole of the Triton X-100 solution was removed. A fat stain was prepared by dissolving Oil Red 0 (Sigma) in a 60% (v/v) isopropanol solution at 0.3% (w/v), and 60 μL of the fat stain was dispensed to each well. The cells were incubated at room temperature for 10 minutes. The whole of the fat stain was removed, and then 60 μL of a 60% (v/v) isopropanol solution was dispensed and removed. Thus, each well was washed twice. Thereafter, DMSO was added to each well at 100 μL per well, followed by stirring at room temperature for five minutes. […] The degree of adipocyte differentiation (%) of the test compound-added group was calculated assuming that the measured ABS550 of the positive control group was 100% and the measured ABS550 of the negative control group was 0.
N.D. denotes not calculable.

What is called IC50 is the concentration needed to halve the response being measured. The term melting point denotes the temperature, or range, at which the solid turns liquid.

`Cc1cc(Oc2ccc3nc(COc4cccc(C(=O)O)c4)n(C)c3c2)cc(C)c1N.Cl.Cl` [Example 2, 3-{[6-(4-Amino-3,5-dimethylphenoxy)-1-methyl-1H-benzimidazol-2-yl]methoxy}benzoic acid dihydrochloride]: the melting point lay within 235 to 239 °C. In addition, in the data set on Rat white adipocytes, the IC50 is 12 nM and the “Imax (%)” value is on record as −33%.
As for `Cl.Cn1c(COc2cccc(C(=O)O)c2)nc2ccc(Oc3cccc(F)c3)cc21` [Example 8, 3-{[6-(3-Fluorophenoxy)-1-methyl-1H-benzimidazol-2-yl]methoxy}benzoic acid hydrochloride], in the data set with Rat white adipocytes, the IC50 is 53 nM and the “Imax (%)” value is reported as −29%.
On to `Cl.Cn1c(COc2cccc(C(=O)O)c2)nc2ccc(Oc3ccc(Cl)c(F)c3)cc21` [Example 10, 3-{[6-(4-Chloro-3-fluorophenoxy)-1-methyl-1H-benzimidazol-2-yl]methoxy}benzoic acid hydrochloride], for which, in the data set with Rat white adipocytes, the half-maximal inhibitory concentration (IC50) was 45 nM and the “Imax (%)” value is −29%.
